Reference: ChEMBL document CHEMBL1201862, “PubChem BioAssay data set” (2004)
Blank lines part the entries; values can stand above or below the compound they belong to. Active and inactive are the calls of the source.

Legend:
[1] = target: T1, Neuropeptides B/W receptor type 1 (Homo sapiens, UniProt P48145); assay: human NPBW1 receptor blockade, IC50 – cell-based, fluorescence, dose response, set 5, late-stage follow-up (AID 588566); format: functional
T1 sequence (P48145 whole entry): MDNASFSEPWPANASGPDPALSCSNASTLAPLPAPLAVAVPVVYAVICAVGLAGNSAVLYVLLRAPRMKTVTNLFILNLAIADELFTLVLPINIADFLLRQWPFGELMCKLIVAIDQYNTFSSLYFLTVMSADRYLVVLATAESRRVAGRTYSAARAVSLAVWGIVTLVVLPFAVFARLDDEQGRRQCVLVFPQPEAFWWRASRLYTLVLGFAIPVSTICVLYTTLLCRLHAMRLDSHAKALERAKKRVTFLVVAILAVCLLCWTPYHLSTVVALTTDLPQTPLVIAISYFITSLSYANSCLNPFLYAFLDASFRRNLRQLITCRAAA

[2] = target: T2, Melanin-concentrating hormone receptor 1 (Homo sapiens, UniProt Q99705); assay: Late-stage fluorescence-based counterscreen for antagonists of the G-protein coupled receptor 7 (GPR7): cell-based dose response assay to identify antagonists of the melanin-concentrating hormone receptor 1 (MCHR1) Set 5.; format: functional
T2 sequence (Q99705 whole entry): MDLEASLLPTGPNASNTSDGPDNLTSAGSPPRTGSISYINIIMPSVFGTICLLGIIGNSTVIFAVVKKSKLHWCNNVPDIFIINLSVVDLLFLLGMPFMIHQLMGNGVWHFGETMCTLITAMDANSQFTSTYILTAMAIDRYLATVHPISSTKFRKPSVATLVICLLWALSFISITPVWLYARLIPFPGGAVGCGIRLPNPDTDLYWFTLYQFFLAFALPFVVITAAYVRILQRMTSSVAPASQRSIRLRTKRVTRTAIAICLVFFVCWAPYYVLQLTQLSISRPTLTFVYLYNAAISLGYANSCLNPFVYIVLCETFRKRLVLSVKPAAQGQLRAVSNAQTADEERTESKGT

[3] = SAR analysis of small molecule activators of Apaf-1 using a LZ-Caspase-9/Caspase-3 Fluorescent Selectivity assay - Set 2.; format: functional; conditions: read-out: EC50_Mean
[4] = target: T3, Apoptotic protease-activating factor 1 (Homo sapiens, UniProt O14727); assay: SAR analysis of small molecule Activators of Apaf-1 in a Fluorescent assay.; format: functional; conditions: read-out: EC50_Mean
T3 sequence (O14727 whole entry): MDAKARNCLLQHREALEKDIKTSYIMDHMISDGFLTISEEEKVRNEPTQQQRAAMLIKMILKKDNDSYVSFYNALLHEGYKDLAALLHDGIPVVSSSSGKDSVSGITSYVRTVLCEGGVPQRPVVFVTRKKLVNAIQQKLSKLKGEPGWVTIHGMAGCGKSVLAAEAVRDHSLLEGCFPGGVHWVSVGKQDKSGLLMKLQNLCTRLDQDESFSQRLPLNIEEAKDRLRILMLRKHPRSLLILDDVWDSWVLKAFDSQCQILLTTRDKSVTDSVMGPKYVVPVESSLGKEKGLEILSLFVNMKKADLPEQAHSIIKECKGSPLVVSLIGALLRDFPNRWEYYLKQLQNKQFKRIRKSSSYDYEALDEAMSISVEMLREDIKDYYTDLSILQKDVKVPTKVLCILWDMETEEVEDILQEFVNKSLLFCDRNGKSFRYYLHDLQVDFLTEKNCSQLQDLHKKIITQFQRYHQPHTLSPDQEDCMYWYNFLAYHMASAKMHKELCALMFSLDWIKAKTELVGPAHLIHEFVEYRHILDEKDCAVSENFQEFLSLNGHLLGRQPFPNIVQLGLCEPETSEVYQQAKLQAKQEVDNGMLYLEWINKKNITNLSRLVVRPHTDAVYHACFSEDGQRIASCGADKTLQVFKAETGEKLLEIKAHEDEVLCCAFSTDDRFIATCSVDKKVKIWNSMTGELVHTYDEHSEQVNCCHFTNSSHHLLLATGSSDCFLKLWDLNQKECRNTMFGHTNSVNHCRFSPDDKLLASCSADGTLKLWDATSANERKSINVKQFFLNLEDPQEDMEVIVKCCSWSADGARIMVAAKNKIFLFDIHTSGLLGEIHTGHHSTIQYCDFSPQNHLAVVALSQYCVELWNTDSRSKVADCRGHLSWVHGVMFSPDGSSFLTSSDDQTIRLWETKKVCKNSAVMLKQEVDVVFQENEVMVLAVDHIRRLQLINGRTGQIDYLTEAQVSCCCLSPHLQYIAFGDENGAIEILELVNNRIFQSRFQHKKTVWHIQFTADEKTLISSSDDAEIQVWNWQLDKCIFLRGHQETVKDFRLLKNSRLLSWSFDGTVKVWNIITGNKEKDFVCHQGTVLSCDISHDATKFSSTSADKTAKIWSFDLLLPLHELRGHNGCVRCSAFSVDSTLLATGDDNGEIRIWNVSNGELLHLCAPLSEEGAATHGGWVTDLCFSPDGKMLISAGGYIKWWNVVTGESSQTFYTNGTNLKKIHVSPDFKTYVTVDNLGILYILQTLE

[5] = target: T3, Apoptotic protease-activating factor 1; assay: SAR analysis of small molecule Activators of Apaf-1 in a Fluorescent assay - set 2.; format: functional; conditions: read-out: EC50_Mean
[6] = target: Dual specificity tyrosine-phosphorylation-regulated kinase 1A (Homo sapiens, UniProt Q13627); format: functional;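 also: measured against DYRK1A as one member of a broad kinome profiling panel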
[7] = target: Cyclin-dependent kinase 9 (Homo sapiens, UniProt P50750); format: functional;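 also: value from the CDK9 entry of a kinome-spanning kinase panel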
Sequence of Cyclin-dependent kinase 9 (P50750 whole entry): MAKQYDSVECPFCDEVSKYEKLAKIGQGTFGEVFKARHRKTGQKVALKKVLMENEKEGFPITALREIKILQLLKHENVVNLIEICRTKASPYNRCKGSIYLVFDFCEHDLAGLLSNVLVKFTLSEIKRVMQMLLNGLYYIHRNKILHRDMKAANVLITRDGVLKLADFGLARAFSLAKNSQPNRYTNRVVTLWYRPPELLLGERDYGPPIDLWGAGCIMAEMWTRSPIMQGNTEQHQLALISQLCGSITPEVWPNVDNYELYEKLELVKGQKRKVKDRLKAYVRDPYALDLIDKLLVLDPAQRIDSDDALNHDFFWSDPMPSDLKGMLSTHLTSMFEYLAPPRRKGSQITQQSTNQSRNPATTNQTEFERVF

[8] = target: Rho-associated protein kinase 1 (Homo sapiens, UniProt Q13464); format: functional;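 also: measured within a broad kinome-wide panel profiling many kinases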
[9] = target: T4, Serine/threonine-protein kinase Chk1 (Homo sapiens, UniProt O14757); format: functional;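 also: measured as one member of a kinome-wide kinase profiling panel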
T4 sequence (O14757 whole entry): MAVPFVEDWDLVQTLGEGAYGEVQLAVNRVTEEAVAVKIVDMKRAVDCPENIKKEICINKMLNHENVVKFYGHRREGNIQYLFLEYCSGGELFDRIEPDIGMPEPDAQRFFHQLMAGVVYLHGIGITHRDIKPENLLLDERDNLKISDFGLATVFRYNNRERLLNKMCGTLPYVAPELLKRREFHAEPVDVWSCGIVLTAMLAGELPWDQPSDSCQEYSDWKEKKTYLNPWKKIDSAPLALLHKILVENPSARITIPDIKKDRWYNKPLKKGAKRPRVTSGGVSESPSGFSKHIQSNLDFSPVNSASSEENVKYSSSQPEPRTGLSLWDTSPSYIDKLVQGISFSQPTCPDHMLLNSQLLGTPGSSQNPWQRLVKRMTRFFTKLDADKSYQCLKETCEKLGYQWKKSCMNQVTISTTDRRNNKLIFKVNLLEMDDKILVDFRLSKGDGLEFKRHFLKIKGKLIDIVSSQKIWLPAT

[10] = target: Vascular endothelial growth factor receptor 2 (Homo sapiens, UniProt P35968); format: functional
[11] = target: Death-associated protein kinase 3 (Homo sapiens, UniProt O43293); format: functional;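 also: measured as one member of a kinome-wide profiling panel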
[12] = target: cAMP-dependent protein kinase catalytic subunit alpha (Homo sapiens, UniProt P17612); format: functional
[13] = target: Dual specificity tyrosine-phosphorylation-regulated kinase 1B (Homo sapiens, UniProt Q9Y463); assay: Navigating the Kinome. Panel member name: DYRK1B; format: functional
Aurora kinase A = target: T5, Aurora kinase A (Homo sapiens, UniProt O14965); format: functional;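 also: value from the Navigating the Kinome kinase panel profiling, panel entry STK6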
T5 sequence (O14965 whole entry): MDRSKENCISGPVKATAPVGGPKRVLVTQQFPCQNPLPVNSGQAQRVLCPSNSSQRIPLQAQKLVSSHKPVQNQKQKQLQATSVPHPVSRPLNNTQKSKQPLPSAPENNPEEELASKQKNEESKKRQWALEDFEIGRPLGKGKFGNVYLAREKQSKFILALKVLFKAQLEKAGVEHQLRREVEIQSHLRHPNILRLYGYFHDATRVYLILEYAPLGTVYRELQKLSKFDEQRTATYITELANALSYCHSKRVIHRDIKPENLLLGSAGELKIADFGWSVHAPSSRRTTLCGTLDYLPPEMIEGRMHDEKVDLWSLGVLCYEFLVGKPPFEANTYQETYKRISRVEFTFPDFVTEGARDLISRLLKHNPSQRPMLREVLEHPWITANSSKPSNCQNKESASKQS

[14] = target: Protein kinase C theta type (Homo sapiens, UniProt Q04759); assay: Navigating the Kinome. Panel member name: PRKCQ; format: functional
[15] = target: Leukocyte tyrosine kinase receptor (Homo sapiens, UniProt P29376); assay: Navigating the Kinome. Panel member name: LTK; format: functional
[16] = target: Macrophage colony-stimulating factor 1 receptor (Homo sapiens, UniProt P07333); format: functional;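 also: value comes from the Navigating the Kinome screening panel, CSF1R member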
Sequence of Macrophage colony-stimulating factor 1 receptor (P07333 whole entry): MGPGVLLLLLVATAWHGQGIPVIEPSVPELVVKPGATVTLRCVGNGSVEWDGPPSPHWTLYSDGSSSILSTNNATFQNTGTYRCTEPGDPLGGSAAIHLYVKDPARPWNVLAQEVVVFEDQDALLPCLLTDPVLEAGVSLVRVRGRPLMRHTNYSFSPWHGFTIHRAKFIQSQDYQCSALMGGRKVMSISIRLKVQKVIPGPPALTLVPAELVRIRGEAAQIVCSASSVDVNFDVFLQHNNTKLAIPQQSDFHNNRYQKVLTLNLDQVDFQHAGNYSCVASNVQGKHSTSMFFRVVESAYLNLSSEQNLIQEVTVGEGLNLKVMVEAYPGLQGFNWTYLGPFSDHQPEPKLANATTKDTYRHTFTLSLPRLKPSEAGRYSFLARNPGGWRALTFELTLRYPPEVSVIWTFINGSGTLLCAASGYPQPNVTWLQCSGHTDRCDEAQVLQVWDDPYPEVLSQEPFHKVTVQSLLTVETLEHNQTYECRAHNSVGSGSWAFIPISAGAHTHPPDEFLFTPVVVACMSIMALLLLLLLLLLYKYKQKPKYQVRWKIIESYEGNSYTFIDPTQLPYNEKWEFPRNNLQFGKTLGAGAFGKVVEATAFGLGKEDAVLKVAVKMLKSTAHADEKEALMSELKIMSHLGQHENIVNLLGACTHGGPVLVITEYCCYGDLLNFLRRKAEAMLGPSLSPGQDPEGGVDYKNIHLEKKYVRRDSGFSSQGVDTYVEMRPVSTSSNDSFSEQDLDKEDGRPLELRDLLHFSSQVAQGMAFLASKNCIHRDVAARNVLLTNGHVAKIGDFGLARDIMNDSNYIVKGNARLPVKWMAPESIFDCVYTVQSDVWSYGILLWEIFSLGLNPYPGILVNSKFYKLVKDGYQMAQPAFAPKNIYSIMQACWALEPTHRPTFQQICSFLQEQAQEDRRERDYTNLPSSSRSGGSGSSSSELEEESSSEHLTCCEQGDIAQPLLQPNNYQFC

[17] = target: Tyrosine-protein kinase ABL1 (Homo sapiens, UniProt P00519); format: functional
[18] = target: ALK tyrosine kinase receptor (Homo sapiens, UniProt Q9UM73); format: functional;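 also: ALK tested as one member of a kinase panel screen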
Sequence of ALK tyrosine kinase receptor (Q9UM73 whole entry): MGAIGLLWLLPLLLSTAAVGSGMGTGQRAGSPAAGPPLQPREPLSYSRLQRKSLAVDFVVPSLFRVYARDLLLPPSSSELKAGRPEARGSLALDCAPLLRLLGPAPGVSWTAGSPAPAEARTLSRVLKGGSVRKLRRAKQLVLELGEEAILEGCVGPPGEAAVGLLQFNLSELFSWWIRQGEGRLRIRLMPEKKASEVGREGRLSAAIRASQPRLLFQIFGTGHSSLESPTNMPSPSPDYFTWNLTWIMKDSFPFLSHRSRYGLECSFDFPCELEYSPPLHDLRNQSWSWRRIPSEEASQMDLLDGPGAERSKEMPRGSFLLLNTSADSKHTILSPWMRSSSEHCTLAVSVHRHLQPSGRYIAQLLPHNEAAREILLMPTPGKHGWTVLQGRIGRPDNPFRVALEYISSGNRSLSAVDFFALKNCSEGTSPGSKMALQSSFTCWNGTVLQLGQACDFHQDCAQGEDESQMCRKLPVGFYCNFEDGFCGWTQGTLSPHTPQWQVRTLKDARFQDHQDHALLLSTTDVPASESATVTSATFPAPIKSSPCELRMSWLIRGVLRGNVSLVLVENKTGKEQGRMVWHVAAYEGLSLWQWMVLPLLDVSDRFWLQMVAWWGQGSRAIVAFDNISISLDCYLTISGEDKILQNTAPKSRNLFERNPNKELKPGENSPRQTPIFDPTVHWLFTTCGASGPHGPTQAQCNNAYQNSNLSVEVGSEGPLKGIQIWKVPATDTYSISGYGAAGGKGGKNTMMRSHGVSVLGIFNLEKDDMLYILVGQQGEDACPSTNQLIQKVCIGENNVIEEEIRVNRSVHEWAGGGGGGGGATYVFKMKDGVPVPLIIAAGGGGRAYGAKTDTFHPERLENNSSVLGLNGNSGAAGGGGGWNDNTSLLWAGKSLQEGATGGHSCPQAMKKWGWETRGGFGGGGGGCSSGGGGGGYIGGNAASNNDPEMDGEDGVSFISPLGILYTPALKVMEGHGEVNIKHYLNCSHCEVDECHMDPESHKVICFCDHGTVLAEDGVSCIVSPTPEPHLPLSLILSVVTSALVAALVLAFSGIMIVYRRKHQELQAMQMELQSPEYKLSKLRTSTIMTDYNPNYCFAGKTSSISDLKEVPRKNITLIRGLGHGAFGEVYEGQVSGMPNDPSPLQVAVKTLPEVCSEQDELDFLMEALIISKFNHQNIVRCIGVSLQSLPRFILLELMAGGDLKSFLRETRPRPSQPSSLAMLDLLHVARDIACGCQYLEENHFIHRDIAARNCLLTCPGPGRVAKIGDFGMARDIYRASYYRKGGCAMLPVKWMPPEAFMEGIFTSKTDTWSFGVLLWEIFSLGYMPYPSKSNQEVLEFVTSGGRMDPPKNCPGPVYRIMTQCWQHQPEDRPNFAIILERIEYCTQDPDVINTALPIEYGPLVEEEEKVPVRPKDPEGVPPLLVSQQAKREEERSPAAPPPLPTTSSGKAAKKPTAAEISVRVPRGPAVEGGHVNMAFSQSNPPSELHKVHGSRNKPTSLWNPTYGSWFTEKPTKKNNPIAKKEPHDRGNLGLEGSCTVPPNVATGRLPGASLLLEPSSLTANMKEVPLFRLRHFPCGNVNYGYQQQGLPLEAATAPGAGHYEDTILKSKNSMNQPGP

[19] = target: Platelet-derived growth factor receptor beta (Homo sapiens, UniProt P09619); format: functional;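 also: value comes from a kinome panel, with PDGFRB tested as one panel member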
[20] = target: Cyclin-dependent kinase 19 (Homo sapiens, UniProt Q9BWU1); assay: Navigating the Kinome. Panel member name: CDC2L6; format: functional
Sequence of Cyclin-dependent kinase 19 (Q9BWU1 whole entry, the tested form may be a part): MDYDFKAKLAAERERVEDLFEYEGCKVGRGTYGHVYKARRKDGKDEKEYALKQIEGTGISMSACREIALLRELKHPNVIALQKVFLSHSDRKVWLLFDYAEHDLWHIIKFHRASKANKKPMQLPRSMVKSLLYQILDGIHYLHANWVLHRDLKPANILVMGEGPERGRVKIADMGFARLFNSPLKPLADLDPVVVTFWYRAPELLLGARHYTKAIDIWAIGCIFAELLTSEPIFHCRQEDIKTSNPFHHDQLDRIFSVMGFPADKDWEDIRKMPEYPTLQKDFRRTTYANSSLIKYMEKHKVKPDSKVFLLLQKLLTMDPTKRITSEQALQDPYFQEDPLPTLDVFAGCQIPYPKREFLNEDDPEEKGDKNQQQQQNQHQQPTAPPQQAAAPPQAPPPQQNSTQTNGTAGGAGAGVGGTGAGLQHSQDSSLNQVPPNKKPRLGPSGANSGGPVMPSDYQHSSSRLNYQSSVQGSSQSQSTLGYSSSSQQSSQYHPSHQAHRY

LIM domain kinase 1 = LIM domain kinase 1 (Homo sapiens, UniProt P53667); assay: Navigating the Kinome. Panel member name: LIMK1; format: functional
Sequence of LIM domain kinase 1 (P53667 whole entry, the tested form may be a part): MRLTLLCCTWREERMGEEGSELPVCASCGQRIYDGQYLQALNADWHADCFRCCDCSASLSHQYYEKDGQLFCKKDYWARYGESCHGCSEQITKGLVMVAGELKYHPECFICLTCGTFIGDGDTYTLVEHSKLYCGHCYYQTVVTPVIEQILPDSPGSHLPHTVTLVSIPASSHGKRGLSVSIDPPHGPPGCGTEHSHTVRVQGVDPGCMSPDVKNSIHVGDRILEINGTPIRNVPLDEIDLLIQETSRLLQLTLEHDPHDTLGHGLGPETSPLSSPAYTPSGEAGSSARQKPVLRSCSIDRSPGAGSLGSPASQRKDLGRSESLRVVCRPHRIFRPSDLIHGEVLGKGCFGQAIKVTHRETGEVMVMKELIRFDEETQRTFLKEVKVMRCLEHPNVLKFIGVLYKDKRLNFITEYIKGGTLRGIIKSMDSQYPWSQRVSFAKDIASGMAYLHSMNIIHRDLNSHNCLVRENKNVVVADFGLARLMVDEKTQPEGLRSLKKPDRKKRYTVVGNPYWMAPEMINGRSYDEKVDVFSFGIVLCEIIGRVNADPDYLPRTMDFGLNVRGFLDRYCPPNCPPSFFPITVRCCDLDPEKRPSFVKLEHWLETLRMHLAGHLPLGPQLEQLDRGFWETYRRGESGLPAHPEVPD

[21] = target: T2, Melanin-concentrating hormone receptor 1; assay: Late-stage fluorescence-based counterscreen for antagonists of the G-protein coupled receptor 7 (GPR7): cell-based dose response assay to identify antagonists of the melanin-concentrating hormone receptor 1 (MCHR1) Set 6.; format: functional
[22] = target: T1, Neuropeptides B/W receptor type 1; assay: human NPBW1 receptor blockade, IC50 – cell-based, fluorescence, dose response, set 6, late-stage follow-up (AID 588583); format: functional
[23] = target: T6, DNA dC->dU-editing enzyme APOBEC-3A (Homo sapiens, UniProt P31941); assay: SAR analysis of small molecule inhibitors of APOBEC3A DNA Deaminase via a fluorescence-based single-stranded DNA deaminase assay - Set 2.; format: functional; conditions: read-out: IC50_Mean
T6 sequence (P31941 whole entry): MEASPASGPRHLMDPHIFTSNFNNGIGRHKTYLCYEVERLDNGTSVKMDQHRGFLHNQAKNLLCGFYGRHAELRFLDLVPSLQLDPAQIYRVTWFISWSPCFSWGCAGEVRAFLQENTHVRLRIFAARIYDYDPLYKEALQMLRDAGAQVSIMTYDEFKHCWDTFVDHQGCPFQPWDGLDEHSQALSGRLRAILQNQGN

Protein Tat = target: T7, Protein Tat (Human immunodeficiency virus type 1 group M subtype B (isolate HXB2)(HIV-1), UniProt P04608); format: functional;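 also: tat binding to TAR RNA read out by fluorescence polarization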
T7 sequence (P04608 whole entry): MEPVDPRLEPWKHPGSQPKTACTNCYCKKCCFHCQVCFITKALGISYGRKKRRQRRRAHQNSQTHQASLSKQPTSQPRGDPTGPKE

Bcl-2-like protein 10 = target: T8, Bcl-2-like protein 10 (Homo sapiens, UniProt Q9HD36); assay: Bcl-B/TR3 peptide binding disruption – biochemical, fluorescence polarization, FITC-TR3 peptide, selectivity assay for Bfl-1 inhibitor project, primary screen (AID 748);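 also: fluorescence polarization from a fluorescein-labelled TR3 peptide binding purified Bcl-B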
T8 sequence (Q9HD36 whole entry): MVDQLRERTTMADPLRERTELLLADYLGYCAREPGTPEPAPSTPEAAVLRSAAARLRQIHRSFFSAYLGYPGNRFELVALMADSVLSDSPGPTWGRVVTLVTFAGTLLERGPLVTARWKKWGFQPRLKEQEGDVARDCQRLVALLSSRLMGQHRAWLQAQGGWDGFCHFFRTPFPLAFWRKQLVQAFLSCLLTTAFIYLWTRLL

[24] = target: T9, DNA dC->dU-editing enzyme APOBEC-3G (Homo sapiens, UniProt Q9HC16); assay: inhibition of APOBEC3G ssDNA deamination – biochemical, fluorescence, single-stranded DNA substrate, SAR follow-up (AID 602136); format: functional; conditions: read-out: IC50_Mean
T9 sequence (Q9HC16 whole entry): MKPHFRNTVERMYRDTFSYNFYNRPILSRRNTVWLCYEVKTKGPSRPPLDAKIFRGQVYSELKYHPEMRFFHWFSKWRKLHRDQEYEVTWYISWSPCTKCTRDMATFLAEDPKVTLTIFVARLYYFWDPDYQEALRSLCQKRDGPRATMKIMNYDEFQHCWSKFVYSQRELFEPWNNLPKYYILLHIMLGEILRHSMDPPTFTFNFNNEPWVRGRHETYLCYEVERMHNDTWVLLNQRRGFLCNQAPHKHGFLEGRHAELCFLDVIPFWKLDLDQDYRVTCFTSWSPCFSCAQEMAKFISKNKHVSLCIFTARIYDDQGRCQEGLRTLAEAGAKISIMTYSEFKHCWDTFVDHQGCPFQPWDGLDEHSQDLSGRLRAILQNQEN

[25] = target: T9, DNA dC->dU-editing enzyme APOBEC-3G; assay: SAR analysis of small molecule inhibitors of APOBEC3G DNA Deaminase via a fluorescence-based single-stranded DNA deaminase assay - Set 2.; format: functional; conditions: read-out: IC50_Mean
[26] = target: T6, DNA dC->dU-editing enzyme APOBEC-3A; assay: SAR analysis of small molecule inhibitors of APOBEC3A DNA Deaminase via a fluorescence-based single-stranded DNA deaminase assay.; format: functional; conditions: read-out: IC50_Mean

Structure (SMILES): Cc1cc(C)n(C(C)C(C)C(=O)O)n1 (stereo not given)
- EC50 [3]: > 100 µM (inactive)
- EC50 [4]: > 100 µM (inactive)
- EC50 [5]: > 100 µM (inactive)

Structure (SMILES): Cc1ccc(C)n1Cc1ccc(C(=O)O)cc1
- IC50 [23]: 4.11 µM (active)
- IC50 (Protein Tat): 3.45 µM (inconclusive)
- IC50 (Bcl-2-like protein 10): 6.93 µM (active)
- IC50 [24]: 39.3 µM (inactive)
- IC50 [25]: 1.98 µM (active)
- IC50 [26]: 52.6 µM (inactive)

Second part, led by results:

- IC50 [1]: 1.76 µM (active)
- IC50 [2]: 0.91 µM (active)
Structure (SMILES): COc1ccc(Oc2c(C=O)cnn(Cc3cccc4ccccc34)c2=O)cc1

- Ki [6]: > 79.4 µM (inactive)
- Ki [7]: > 63.1 µM (inactive)
- Ki [8]: 12.6 µM (active)
- Ki [9]: 12.6 µM (active)
- Ki [10]: 39.8 µM (active)
- Ki [12]: 50.1 µM (active)
- Ki [13]: 63.1 µM (active)
- Ki (Aurora kinase A): > 63.1 µM (inactive)
- Ki [14]: > 100 µM (inactive)
- Ki [15]: 3.16 µM (active)
- Ki [16]: > 100 µM (inactive)
- Ki [17]: 50.1 µM (active)
- Ki [18]: 6.31 µM (active)
- Ki [19]: > 79.4 µM (inactive)
- Ki [20]: > 100 µM (inactive)
- Ki (LIM domain kinase 1): 31.6 µM (active)
Structure (SMILES): Nc1ccc(-c2cccn3c(=O)[nH]nc23)cc1
- Ki [11]: 79.4 µM (active)

- IC50 [21]: > 20 µM (inactive)
- IC50 [22]: > 20 µM (inactive)
Structure (SMILES): N#CC(c1ccccc1)c1ccnn(Cc2cccc3ccccc23)c1=O (stereo not given)
